The supplement of paper PMC11061612

Columns and labels:
AZD5363 = compound: C1CN(CCC1(C(=O)N[C@@H](CCO)C2=CC=C(C=C2)Cl)N)C3=NC=NC4=C3C=CN4 [AZD5363]; conditions: max 10 µM
How it was run: (§1)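 Cancer cell lines were plated in 1536-well plates in 7.5 μl of DMEM/F12 or RPMI with 10% FBS and kept 24 hours at 37°C and 5% CO2 before 72 hours of dosing, with final DMSO typically 0.2%. CellTiter-Glo 2.0 luminescence measured viability, scaled between blank-well and DMSO-well means. Dose responses were fitted to a two-parameter logistic curve with a non-linear mixed effects model. This fit gives the single-agent IC50.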

AZD5153 = compound: COc1nnc2ccc(N3CCC(c4ccc(OCCN5CCN(C)C(=O)[C@H]5C)cc4)CC3)nn12 [AZD5153]; conditions: max 1 µM
How it was run: as §1

Trametinib = compound: CC(=O)Nc1cccc(-n2c(=O)n(C3CC3)c(=O)c3c(Nc4ccc(I)cc4F)n(C)c(=O)c(C)c32)c1 [Trametinib]; conditions: max 1 µM
How it was run: as §1

Venetoclax = compound: CC1(C)CCC(CN2CCN(c3ccc(C(=O)NS(=O)(=O)c4ccc(NCC5CCOCC5)c([N+](=O)[O-])c4)c(Oc4cnc5[nH]ccc5c4)c3)CC2)=C(c2ccc(Cl)cc2)C1 [Venetoclax]; conditions: max 1 µM
How it was run: as §1

SG3199 = compound: CC1=CN2[C@@H](C1)C=NC3=CC(=C(C=C3C2=O)OC)OCCCCCOC4=C(C=C5C(=C4)N=C[C@@H]6CC(=CN6C5=O)C)OC [SG3199]; conditions: max 0.001 µM
How it was run: as §1

AZD5991 = compound: Cc1c2c(nn1C)CSCc1cc(n(C)n1)CSc1cc(c3ccccc3c1)OCCCc1c(C(=O)O)n(C)c3c-2c(Cl)ccc13 [AZD5991]; conditions: max 1 µM
How it was run: as §1

Alisertib = compound: COc1cc(Nc2ncc3c(n2)-c2ccc(Cl)cc2C(c2c(F)cccc2OC)=NC3)ccc1C(=O)O [Alisertib]; conditions: max 10 µM
How it was run: as §1

AZD6738 = compound: C[C@@H]1COCCN1C2=NC(=NC(=C2)C3(CC3)[S@](=N)(=O)C)C4=C5C=CNC5=NC=C4 [AZD6738]; conditions: max 10 µM
How it was run: as §1

Paclitaxel = compound: CC(=O)O[C@H]1C(=O)[C@@]2(C)[C@H]([C@H](OC(=O)c3ccccc3)[C@]3(O)C[C@H](OC(=O)[C@H](O)[C@@H](NC(=O)c4ccccc4)c4ccccc4)C(C)=C1C3(C)C)[C@]1(OC(C)=O)CO[C@@H]1C[C@@H]2O [Paclitaxel]; conditions: max 3 µM
How it was run: as §1

AZD2811 = compound: CCN(CCO)CCCOc1ccc2c(Nc3cc(CC(=O)Nc4cccc(F)c4)[nH]n3)ncnc2c1 [AZD2811]; conditions: max 1 µM
How it was run: as §1

Taselisib = compound: Cc1nc(-c2cn3c(n2)-c2ccc(-c4cnn(C(C)(C)C(N)=O)c4)cc2OCC3)n(C(C)C)n1 [Taselisib]; conditions: max 10 µM
How it was run: as §1

Lapatinib = compound: CS(=O)(=O)CCNCc1ccc(-c2ccc3ncnc(Nc4ccc(OCc5cccc(F)c5)c(Cl)c4)c3c2)o1 [Lapatinib]; conditions: max 10 µM
How it was run: as §1

AZD1390 = compound: CC(C)n1c(=O)n(C)c2cnc3cc(F)c(-c4ccc(OCCCN5CCCCC5)nc4)cc3c21 [AZD1390]; conditions: max 0.3 µM
How it was run: as §1

Doxorubicin = compound: COc1cccc2c1C(=O)c1c(O)c3c(c(O)c1C2=O)C[C@@](O)(C(=O)CO)C[C@@H]3O[C@H]1C[C@H](N)[C@H](O)[C@H](C)O1 [Doxorubicin]; conditions: max 1 µM
How it was run: as §1

Gefitinib = compound: COc1cc2ncnc(Nc3ccc(F)c(Cl)c3)c2cc1OCCCN1CCOCC1 [Gefitinib]; conditions: max 10 µM
How it was run: as §1

Prexasertib = compound: COc1cccc(OCCCN)c1-c1cc(Nc2cnc(C#N)cn2)n[nH]1 [Prexasertib]; conditions: max 1 µM
How it was run: as §1

AZD0156 = compound: CN(C)CCCOc1ccc(-c2ccc3ncc4c(c3c2)n(C2CCOCC2)c(=O)n4C)cn1 [AZD0156]
How it was run: as §1

SRA737 = compound: N#Cc1cnc(Nc2cc(NC[C@H]3CNCCO3)c(C(F)(F)F)cn2)cn1 [SRA737]; conditions: max 10 µM
How it was run: as §1

Dasatinib = compound: CC1=C(C(=CC=C1)Cl)NC(=O)C2=CN=C(S2)NC3=CC(=NC(=N3)C)N4CCN(CC4)CCO [Dasatinib]; conditions: max 2 µM
How it was run: as §1

Olaparib = compound: O=C(c1cc(Cc2n[nH]c(=O)c3ccccc23)ccc1F)N1CCN(C(=O)C2CC2)CC1 [Olaparib]; conditions: max 10 µM
How it was run: as §1

Carboplatin = compound: C1CC(C1)(C(=O)[O-])C(=O)[O-].N.N.[Pt+2] [Carboplatin]; conditions: max 10 µM
How it was run: as §1

Etoposide = compound: COc1cc([C@@H]2c3cc4c(cc3[C@@H](O[C@@H]3O[C@@H]5CO[C@@H](C)O[C@H]5[C@H](O)[C@H]3O)[C@H]3COC(=O)[C@H]23)OCO4)cc(OC)c1O [Etoposide]; conditions: max 10 µM
How it was run: as §1

Selumetinib = compound: Cn1cnc2c(F)c(Nc3ccc(Br)cc3Cl)c(C(=O)NOCCO)cc21 [Selumetinib]; conditions: max 10 µM
How it was run: as §1

5-Fluorouracil = compound: O=c1[nH]cc(F)c(=O)[nH]1 [5-Fluorouracil]; conditions: max 20 µM
How it was run: as §1

Gemcitabine = compound: Nc1ccn([C@@H]2O[C@H](CO)[C@@H](O)C2(F)F)c(=O)n1 [Gemcitabine]; conditions: max 0.3 µM
How it was run: as §1

Palbociclib = compound: CC(=O)c1c(C)c2cnc(Nc3ccc(N4CCNCC4)cn3)nc2n(C2CCCC2)c1=O [Palbociclib]; conditions: max 10 µM
How it was run: as §1

AZD7648 = compound: Cc1cc2ncnn2cc1Nc1ncc2c(n1)n(C1CCOCC1)c(=O)n2C [AZD7648]; conditions: max 10 µM
How it was run: as §1

AZD1775 = compound: C=CCn1c(=O)c2cnc(Nc3ccc(N4CCN(C)CC4)cc3)nc2n1-c1cccc(C(C)(C)O)n1 [AZD1775]
How it was run: as §1

AZD4320 = compound: CN(CC[C@H](CSC1=CC=CC=C1)NC2=C(C=C(C=C2)S(=O)(=O)NC(=O)C3=CC=C(C=C3)N4CCC(CC4)[C@H](C5=CC=CC=C5C6=CC=C(C=C6)Cl)O)S(=O)(=O)C(F)(F)F)CCO [AZD4320]; conditions: max 1 µM
How it was run: as §1

Crizotinib = compound: C[C@@H](Oc1cc(-c2cnn(C3CCNCC3)c2)cnc1N)c1c(Cl)ccc(F)c1Cl [Crizotinib]; conditions: max 10 µM
How it was run: as §1

[1] = compound: O=C(Nc1ccc2[nH]nc(-c3ccncc3)c2c1)[C@@H]1CCN(CC(=O)N2CCN(c3ccc(-c4ncccn4)cc3)CC2)C1; conditions: max 5 µM
How it was run: as §1

MK-2206 = compound: NC1(c2ccc(-c3nc4ccn5c(=O)[nH]nc5c4cc3-c3ccccc3)cc2)CCC1 [MK-2206]; conditions: max 10 µM
How it was run: as §1

SN-38 = compound: CCc1c2c(nc3ccc(O)cc13)-c1cc3c(c(=O)n1C2)COC(=O)[C@]3(O)CC [SN-38]; conditions: max 0.3 µM
How it was run: as §1

AZD8186 = compound: C[C@@H](Nc1cc(F)cc(F)c1)c1cc(C(=O)N(C)C)cc2c(=O)cc(N3CCOCC3)oc12 [AZD8186]; conditions: max 10 µM
How it was run: as §1

Savolitinib = compound: C[C@@H](c1ccc2nccn2c1)n1nnc2ncc(-c3cnn(C)c3)nc21 [Savolitinib]; conditions: max 1 µM
How it was run: as §1

Cell Line | IC50, cell viability 72 h (AZD5363) [nM] | IC50, cell viability 72 h (AZD5153) [nM] | IC50, cell viability 72 h (Trametinib) [nM] | IC50, cell viability 72 h (Venetoclax) [nM] | IC50, cell viability 72 h (SG3199) [nM] | IC50, cell viability 72 h (AZD5991) [nM] | IC50, cell viability 72 h (Alisertib) [nM] | IC50, cell viability 72 h (AZD6738) [nM] | IC50, cell viability 72 h (Paclitaxel) [nM] | IC50, cell viability 72 h (AZD2811) [nM] | IC50, cell viability 72 h (Taselisib) [nM] | IC50, cell viability 72 h (Lapatinib) [nM] | IC50, cell viability 72 h (AZD1390) [nM] | IC50, cell viability 72 h (Doxorubicin) [nM] | IC50, cell viability 72 h (Gefitinib) [nM] | IC50, cell viability 72 h (Prexasertib) [nM] | IC50, cell viability 72 h (AZD0156; max 3 µM) [nM] | IC50, cell viability 72 h (SRA737) [nM] | IC50, cell viability 72 h (Dasatinib) [nM] | IC50, cell viability 72 h (Olaparib) [nM] | IC50, cell viability 72 h (Carboplatin) [nM] | IC50, cell viability 72 h (Etoposide) [nM] | IC50, cell viability 72 h (Selumetinib) [nM] | IC50, cell viability 72 h (5-Fluorouracil) [nM] | IC50, cell viability 72 h (Gemcitabine) [nM] | IC50, cell viability 72 h (Palbociclib) [nM] | IC50, cell viability 72 h (AZD7648) [nM] | IC50, cell viability 72 h (AZD1775; max 3 µM) [nM] | IC50, cell viability 72 h (AZD4320) [nM] | IC50, cell viability 72 h (Crizotinib) [nM] | IC50, cell viability 72 h [1] [nM] | IC50, cell viability 72 h (MK-2206) [nM] | IC50, cell viability 72 h (SN-38) [nM] | IC50, cell viability 72 h (AZD8186) [nM] | IC50, cell viability 72 h (Savolitinib) [nM] | IC50, cell viability 72 h (AZD0156; max 1 µM) [nM] | IC50, cell viability 72 h (AZD1775; max 1 µM) [nM]
Saos-2 (Osteosarcoma) | > 10000 | 887 | > 1000 | > 1000 | > 1 | > 1000 | 9260 | > 10000 | 44.6 | 971 | 3210 | > 10000 | > 300 | 556 | > 10000 | 102 | > 3000 | > 10000 | > 2000 | > 10000 | > 10000 | 3650 | > 10000 | > 20000 | 36.4 | > 10000 | > 10000 | 1230 | > 1000 | 5110 | > 5000 | > 10000 | 10.9 | > 10000 | > 1000 | – | –
CAL-39 (Other Solid Carcinomas) | > 10000 | 287 | 59 | > 1000 | > 1 | > 1000 | 420 | > 10000 | 6.79 | > 1000 | 142 | 377 | > 300 | > 1000 | 737 | > 1000 | > 3000 | > 10000 | 73.9 | > 10000 | > 10000 | 9070 | 1020 | > 20000 | 25.2 | > 10000 | > 10000 | 651 | > 1000 | 4690 | 581 | > 10000 | 22.2 | 4770 | > 1000 | – | –
SW48 (Colorectal Carcinoma) | > 10000 | 254 | 123 | > 1000 | > 1 | > 1000 | 58.4 | 7010 | 3.37 | 23.9 | 2370 | 8920 | > 300 | 68.6 | > 10000 | 117 | – | > 10000 | > 2000 | > 10000 | > 10000 | 517 | > 10000 | > 20000 | 92.6 | > 10000 | > 10000 | – | > 1000 | 3360 | 1330 | > 10000 | 13.3 | > 10000 | > 1000 | > 1000 | > 1000
